{"source": "paper PMC4648050", "about": "“Discovery of Inhibitors of Trypanosoma brucei by Phenotypic Screening of a Focused Protein Kinase Library” (Chemmedchem, 2015)", "key": {"[1]": {"system": "MRC5 cells (human lung fibroblasts)", "test": "MRC5 proliferation assay", "type": "cell-based", "settings": "geometric mean of two or more determinations", "experimental": "(§1) Trypanosome and MRC5 proliferation assay: Measurement of inhibition of the proliferation of MRC5 cells (human lung fibroblasts) and T. brucei bloodstream-stage cells was performed using a modification of a cell viability assay previously described.[35, 36] Compounds ([…] to 0.5 nM) were incubated with 2×10^3 cells per well in 0.2 mL of the appropriate culture medium (MEM with 10 % foetal bovine serum for MRC5 cells) in clear 96-well plates. Plates were incubated at 37 °C in the presence of 5 % CO2 for 69 h. Resazurin was then added to a final concentration of 50 μM, and plates were incubated as above for a further 4 h before being read on a BioTek Flx800 fluorescence plate reader."}, "T. b. brucei": {"system": "T. b. brucei", "test": "Trypanosome proliferation assay", "type": "cell-based, Trypanosoma brucei brucei", "settings": "for EC50: Trypanosoma brucei, read-out: EC50 T. b. brucei; for fold loss of activity (T. b. brucei EC50): relative to the comparator compound", "experimental": "as §1"}, "[2]": {"system": "T. brucei bloodstream-stage cells", "test": "Static–cidal (SC) assay", "type": "cell-based, Trypanosoma brucei brucei", "settings": "for EC50 / MCC: Trypanosoma brucei; for EC50: 48 h, read-out: SC EC50(1); for MCC: read-out: MCC (minimal cidal concentration); for plateau of dose–response curve (inhibition): static–cidal dose–response curve", "experimental": "Determination of cidality against T. brucei bloodstream-stage cells was performed using a static–cidal (SC) assay as previously reported.[26] Briefly, bloodstream-form trypanosomes were seeded into 384-well plates at 4×10^5 mL^−1 (50 μL per well), followed by immediate addition of resazurin (50 μM final) to one of the plates, and all plates were incubated at 37 °C, 5 % CO2. After 4 h the t0 plate was read using a PerkinElmer Victor 3 plate reader (λex=528 nm, λem=590 nm). The second plate was processed in the same manner 20 h later, and at 44 h the last plate was processed. The minimum cidal concentration (MCC) is defined as the lowest concentration of drug that results in a decrease of resorufin signal over time. For dose–response curves from this assay either a monophasic or a biphasic equation was used, depending on which one provided the best fit. For monophasic fits, the following four-parametric equation [Eq. (1)] was used:\nin which A=percent inhibition at bottom, B=percent inhibition at top, C=EC50, D=slope, x=inhibitor concentration, and y=percent inhibition. Equation (2) was used for biphasic fits:\nfor which A=percent inhibition at mid-plateau, B=slope, C=log[SC EC50(1)], D=log[SC EC50(2)]. Thus SC EC50(1) is the EC50 for the first phase of the curve, and SC EC50(2) is that for the second phase. Inhibition at the bottom of the curve is fixed at 0 % and at the top, 100 %."}, "[3]": {"settings": "geometric mean of two or more determinations, standard cell viability (resazurin) assay"}}, "note": "Where two headings read alike, the source gives them in different places."}
{"molecule": "COCCCn1c(=O)[nH]c2ncc(-c3ccc(OC(F)(F)F)cc3)nc21", "note": "[Compound 2]", "values": [{"measurement": "EC50", "setting": "[1]", "result": 15, "unit": "µM"}, {"measurement": "EC50", "setting": "T. b. brucei; [3]", "result": 0.5, "unit": "µM"}]}
{"molecule": "C[C@H](c1ccccc1)n1c(=O)[nH]c2ncc(-c3ccc(O)cc3)nc21", "note": "[Compound 3]", "values": [{"measurement": "EC50", "setting": "T. b. brucei; [3]", "result": 0.9, "unit": "µM"}]}
{"molecule": "C[C@@H](c1ccccc1)n1c(=O)[nH]c2ncc(-c3ccc(F)cc3)nc21", "note": "[Compound 8]", "values": [{"measurement": "EC50", "setting": "[1]", "result": "> 50", "unit": "µM"}, {"measurement": "EC50", "setting": "T. b. brucei; [3]", "result": 0.09, "unit": "µM"}]}
{"molecule": "O=c1[nH]c2ncc(-c3ccc(F)cc3)nc2n1Cc1ccccc1", "note": "[Compound 9, 1-Benzyl-6-(4-fluorophenyl)-1H-imidazo[4,5-b]pyrazin-2(3H)-one]", "values": [{"measurement": "EC50", "setting": "[1]", "result": "> 50", "unit": "µM"}, {"measurement": "EC50", "setting": "T. b. brucei; [3]", "result": 0.5, "unit": "µM"}]}
{"molecule": "Cn1c(=O)[nH]c2ncc(-c3ccc(F)cc3)nc21", "note": "[Compound 11]", "values": [{"measurement": "EC50", "setting": "[1]", "result": "> 50", "unit": "µM"}, {"measurement": "EC50", "setting": "T. b. brucei; [3]", "result": 40, "unit": "µM"}, {"measurement": "fold loss of activity (T. b. brucei EC50)", "setting": "T. b. brucei", "result": 100, "unit": "fold"}]}
{"molecule": "C[C@H](c1ccccc1)n1c(=O)[nH]c2ncc(-c3ccc(OC(F)(F)F)cc3)nc21", "note": "[Compound 15]", "values": [{"measurement": "EC50", "setting": "[1]", "result": 39, "unit": "µM"}, {"measurement": "EC50", "setting": "T. b. brucei; [3]", "result": 1, "unit": "µM"}, {"measurement": "fold loss of activity (T. b. brucei EC50)", "setting": "T. b. brucei", "result": 10, "unit": "fold"}]}
{"molecule": "C[C@H](c1ccccc1)n1c(=O)[nH]c2nccnc21", "note": "[Compound 16]", "values": [{"measurement": "EC50", "setting": "[1]", "result": "> 50", "unit": "µM"}, {"measurement": "EC50", "setting": "T. b. brucei; [3]", "result": 36, "unit": "µM"}, {"measurement": "fold loss of activity (T. b. brucei EC50)", "setting": "T. b. brucei", "result": "> 300", "unit": "fold"}]}
{"molecule": "C[C@H](c1ccccc1)n1c(=O)[nH]c2ncc(-c3cccc(F)c3)nc21", "note": "[Compound 17]", "values": [{"measurement": "EC50", "setting": "[1]", "result": 44, "unit": "µM"}, {"measurement": "EC50", "setting": "T. b. brucei; [3]", "result": 0.3, "unit": "µM"}]}
{"molecule": "CNC(=O)c1ccc(-c2cnc3[nH]c(=O)n(C4CCCCC4)c3n2)cc1", "note": "[Compound 22]", "values": [{"measurement": "EC50", "setting": "[1]", "result": "> 50", "unit": "µM"}, {"measurement": "EC50", "setting": "T. b. brucei; [3]", "result": 1.7, "unit": "µM"}, {"measurement": "fold loss of activity (T. b. brucei EC50)", "setting": "T. b. brucei", "result": 30, "unit": "fold"}]}
{"molecule": "CN(C)Cc1ccc(-c2cnc3[nH]c(=O)n(C4CCCCC4)c3n2)cc1", "note": "[Compound 23]", "values": [{"measurement": "EC50", "setting": "[1]", "result": "> 50", "unit": "µM"}, {"measurement": "EC50", "setting": "T. b. brucei; [3]", "result": 5, "unit": "µM"}, {"measurement": "fold loss of activity (T. b. brucei EC50)", "setting": "T. b. brucei", "result": 50, "unit": "fold"}]}
{"molecule": "CC(=O)Nc1cccc(-c2cnc3[nH]c(=O)n(C4CCCCC4)c3n2)c1", "note": "[Compound 25]", "values": [{"measurement": "EC50", "setting": "[1]", "result": "> 50", "unit": "µM"}, {"measurement": "EC50", "setting": "T. b. brucei; [3]", "result": 0.9, "unit": "µM"}]}
{"molecule": "COc1ccccc1-c1cnc2[nH]c(=O)n(C3CCCCC3)c2n1", "note": "[Compound 27]", "values": [{"measurement": "EC50", "setting": "[1]", "result": "> 50", "unit": "µM"}, {"measurement": "EC50", "setting": "T. b. brucei; [3]", "result": 0.9, "unit": "µM"}]}
{"molecule": "O=c1[nH]c2ncc(-c3ccncc3)nc2n1C1CCCCC1", "note": "[Compound 29]", "values": [{"measurement": "EC50", "setting": "[1]", "result": "> 50", "unit": "µM"}, {"measurement": "EC50", "setting": "T. b. brucei; [3]", "result": 0.07, "unit": "µM"}]}
{"molecule": "CN1CCN(c2cnc3[nH]c(=O)n(C4CCCCC4)c3n2)CC1", "note": "[Compound 33]", "values": [{"measurement": "EC50", "setting": "[1]", "result": "> 50", "unit": "µM"}, {"measurement": "EC50", "setting": "T. b. brucei; [3]", "result": 2, "unit": "µM"}, {"measurement": "fold loss of activity (T. b. brucei EC50)", "setting": "T. b. brucei", "result": 50, "unit": "fold"}]}
{"molecule": "CC(C)n1c(=O)[nH]c2ncc(-c3ccccc3)nc21", "note": "[Compound 36]", "values": [{"measurement": "EC50", "setting": "[1]", "result": "> 50", "unit": "µM"}, {"measurement": "EC50", "setting": "T. b. brucei; [3]", "result": 0.3, "unit": "µM"}, {"measurement": "fold loss of activity (T. b. brucei EC50)", "setting": "T. b. brucei", "result": 10, "unit": "fold"}]}
{"molecule": "O=c1[nH]c2ncc(-c3ccccc3)nc2n1-c1ccccc1", "note": "[Compound 37]", "values": [{"measurement": "EC50", "setting": "[1]", "result": "> 50", "unit": "µM"}, {"measurement": "EC50", "setting": "T. b. brucei; [3]", "result": "> 50", "unit": "µM"}]}
{"molecule": "CCC(CO)n1c(=O)[nH]c2ncc(-c3ccccc3)nc21", "note": "(stereo not drawn) [Compound 40]", "values": [{"measurement": "EC50", "setting": "[1]", "result": "> 50", "unit": "µM"}, {"measurement": "EC50", "setting": "T. b. brucei; [3]", "result": 0.5, "unit": "µM"}, {"measurement": "fold loss of activity (T. b. brucei EC50)", "setting": "T. b. brucei", "result": "~10", "unit": "fold"}]}
{"molecule": "CN(C)CCn1c(=O)[nH]c2ncc(-c3ccccc3)nc21", "note": "[Compound 41]", "values": [{"measurement": "EC50", "setting": "[1]", "result": "> 50", "unit": "µM"}, {"measurement": "EC50", "setting": "T. b. brucei; [3]", "result": 13, "unit": "µM"}]}
{"molecule": "CN1CCC(n2c(=O)[nH]c3ncc(-c4ccccc4)nc32)CC1", "note": "[Compound 42]", "values": [{"measurement": "EC50", "setting": "[1]", "result": "> 50", "unit": "µM"}, {"measurement": "EC50", "setting": "T. b. brucei; [3]", "result": 2, "unit": "µM"}]}
{"molecule": "C[C@H](c1ccccc1)n1c(=O)[nH]c2ccc(-c3ccc(F)cc3)cc21", "note": "[Compound 47]", "values": [{"measurement": "EC50", "setting": "T. b. brucei; [3]", "result": 10, "unit": "µM"}, {"measurement": "fold loss of activity (T. b. brucei EC50)", "setting": "T. b. brucei", "result": 100, "unit": "fold"}]}
{"molecule": "C[C@H](c1ccccc1)n1c(=O)n(C)c2ncc(-c3ccc(F)cc3)nc21", "note": "[Compound 48]", "values": [{"measurement": "EC50", "setting": "T. b. brucei; [3]", "result": 8, "unit": "µM"}, {"measurement": "fold loss of activity (T. b. brucei EC50)", "setting": "T. b. brucei", "result": 100, "unit": "fold"}]}
{"molecule": "CC(C)(c1ccccc1)n1c(=O)[nH]c2ncc(-c3cccnc3)cc21", "note": "[Compound 52]", "values": [{"measurement": "EC50", "setting": "[1]", "result": 23, "unit": "µM"}, {"measurement": "EC50", "setting": "T. b. brucei; [3]", "result": 0.79, "unit": "µM"}]}
{"molecule": "Nc1nc(N)nc(Nc2ccc([As]3SCC(CO)S3)cc2)n1", "note": "(stereo not drawn) [melarsoprol, reference compound]", "values": [{"measurement": "EC50", "setting": "[2]", "result": 0.031, "unit": "µM"}, {"measurement": "MCC", "setting": "[2]", "result": 100, "unit": "nM"}, {"measurement": "plateau of dose–response curve (inhibition)", "setting": "[2]", "result": 100, "unit": "% inhibition"}, {"measurement": "EC50", "setting": "T. b. brucei", "result": 0.009, "unit": "µM"}]}
{"molecule": "N=C(N)c1ccc(OCCCCCOc2ccc(C(=N)N)cc2)cc1", "note": "[pentamidine, reference compound]", "values": [{"measurement": "EC50", "setting": "[2]; static cidal EC50, first site/phase", "result": 0.019, "unit": "µM"}, {"measurement": "MCC", "setting": "[2]; static–cidal assay in triplicate", "result": 100, "unit": "nM"}, {"measurement": "plateau of dose–response curve (inhibition)", "setting": "[2]", "result": 100, "unit": "% inhibition"}, {"measurement": "mode of antiparasitic effect (in words)", "setting": "[2]; text and figure legend, at concentrations tested", "result": "cidal"}, {"measurement": "EC50", "setting": "T. b. brucei; [3]", "result": 0.004, "unit": "µM"}]}
